The values that follow come from ChEMBL document CHEMBL3507680, “University of Dundee, Gates Library screen for HepG2 cell viability”.

This data set is described as follows: Human HepG2 cell viability assay in 384 well format. It counts as toxicity, cell-based. Further details: dose 125 nL, time 70.5 hour; cytotoxicity at 70.5 h: concentration not given beside the values. Conditions: HepG2 cells, read-out: Inhibition.

In the case of `O=c1cc(CN2CCCC2)nc2n1CCCN(S(=O)(=O)C1CC1)C2`, the cytotoxicity at 70.5 h is -1.37%.

As for `Cc1cccc(N2CCOCC3(C2)CN(c2cccnc2)C(=O)CO3)n1` (centres undefined), the cytotoxicity at 70.5 h is -4.82%.

On to `CCc1ccc(NC(=O)N2C[C@H]3C[C@H](C(=O)NC4CCC4)[C@@H](C2)O3)cc1`, for which the cytotoxicity at 70.5 h worked out at 8.99%.

As for `O=C(C1CCOC1)N1CC2(CCN(c3ccccc3)C2)C1` (centres undefined), the cytotoxicity at 70.5 h was -0.441%.

With `CCS(=O)(=O)N1CCCn2c(nc(CN3CCCC3)cc2=O)C1`, the cytotoxicity at 70.5 h is -7.43%.

Consider `COc1cc(N2CCC3(CC2)OCC(=O)NC3C)ncn1` (centres undefined), for which the cytotoxicity at 70.5 h is -4.57%.

For `Cn1cc(CN2CCC[C@]3(C[C@H](Oc4ccccn4)CO3)C2)cn1`, the cytotoxicity at 70.5 h is -7.75%.

As for `Cn1ccnc1CN1CCc2c(COCC3CC3)nn(C)c2C1`, the cytotoxicity at 70.5 h is -6.3%.

`COc1cccc(-c2ccc3nc(C4CCN(C(C)=O)CC4)nn3c2)c1`: the cytotoxicity at 70.5 h is -4.61%.

For the compound `CC(=O)N1CCC(c2nc3ccc(-c4cccc(F)c4)cn3n2)CC1`, the cytotoxicity at 70.5 h is -9.34%.

For `Cc1nc(CN2CCC23CCN(C(=O)c2ccco2)CC3)cs1`, the cytotoxicity at 70.5 h is -1.36%.

On to `CCO[C@@H]1CO[C@@]2(CCCN(S(=O)(=O)c3ccccc3)C2)C1`, for which the cytotoxicity at 70.5 h is -8.47%.

`O=S(=O)(c1ccccc1)N1CCC[C@]2(C[C@H](OCC3CC3)CO2)C1`: the cytotoxicity at 70.5 h was -9.34%.

Regarding `CCOC1COC2(CCN(S(=O)(=O)c3cccc(C)c3)CC2)C1` (centres undefined), the cytotoxicity at 70.5 h is -6.02%.

In the case of `Cn1ccc(-c2cc(C(=O)N3CCOCC3)c3ccccn23)n1`, the cytotoxicity at 70.5 h was found to be 3.83%.

Consider `COCCNC(=O)[C@H]1C[C@@H]2CCN(Cc3ccoc3)C[C@H]2O1`, for which the cytotoxicity at 70.5 h was -15.5%.

Consider `CN(C)C(=O)CC1CC2(CCNCC2)c2cc(F)ccc21` (centres undefined), for which the cytotoxicity at 70.5 h is -8.47%.

In the case of `COCC(=O)N1CCO[C@H]2[C@H](OC)CC[C@@H]21`, the cytotoxicity at 70.5 h is -16.2%.

`Cn1cnc(-c2cc(C(=O)N3CCOCC3)c3ccccn23)c1`: the cytotoxicity at 70.5 h was -31.4%.

For the compound `O=C(C1=CCCC1)N1C[C@@H]2COC[C@]2(COc2cccnc2)C1`, the cytotoxicity at 70.5 h is -5.78%.

In the case of `Cc1ccc(C(=O)N2C[C@@H]3COC[C@]3(COc3cccnc3)C2)cn1`, the cytotoxicity at 70.5 h is 12.6%.

For the compound `CC(=O)N1CCO[C@@H]2CN(C(=O)c3cc(C)oc3C)CC[C@@H]2C1`, the cytotoxicity at 70.5 h was determined as 13%.

Turning to `COc1ccc(CN2CCn3c(CNS(C)(=O)=O)nnc3C2)cc1`, the cytotoxicity at 70.5 h was determined as 24.4%.

As for `Cn1cc(CN2CC[C@H](O)[C@@H]2Cc2ccncc2)cn1`, the cytotoxicity at 70.5 h was determined as 26%.

As for `Cc1cc(C(=O)N2CC[C@@H]3CN(S(C)(=O)=O)CCO[C@@H]3C2)c(C)o1`, the cytotoxicity at 70.5 h was -5.13%.

For the compound `O=S(=O)(c1ccccc1)N1CCC2(CCCN2CC2CCCC2)C1` (centres undefined), the cytotoxicity at 70.5 h is -5.67%.

For the compound `Cn1ncc2c1C(COCC1CC1)CN(Cc1ccc(F)cc1)C2` (centres undefined), the cytotoxicity at 70.5 h turned out to be 25.3%.

Consider `CCS(=O)(=O)NC[C@]12COC[C@H]1CN(Cc1cc(C)on1)C2`, for which the cytotoxicity at 70.5 h was -6.04%.

For `O=C(NCC1CC1)[C@H]1C[C@@H]2CCN(Cc3nccs3)C[C@@H]2O1`, the cytotoxicity at 70.5 h was -2.02%.

On to `O=C1CC(c2cccnc2)C2(CCN(C(=O)c3ccncc3)CC2)N1` (centres undefined), for which the cytotoxicity at 70.5 h is -1.04%.

Turning to `Cc1occc1C(=O)N1CCC2(CCC2NC(=O)c2ccn(C)c2)CC1` (centres undefined), the cytotoxicity at 70.5 h was -2.29%.

Turning to `O=C1CC[C@@H]2[C@@H](CCN2C(=O)c2ccsc2)N1CC1CC1`, the cytotoxicity at 70.5 h is -6.8%.

For `NC(=O)N1CCC2(CC1)CN(c1ccsc1)C(=O)CO2`, the cytotoxicity at 70.5 h is 17.7%.

In the case of `COCCC(=O)N1CCC2(COCc3cnc(-c4ccccc4)nc32)C1` (centres undefined), the cytotoxicity at 70.5 h was 2.54%.

Turning to `CCS(=O)(=O)N1C[C@H]2C[C@H](C(=O)N(C)C)[C@@H](C1)O2`, the cytotoxicity at 70.5 h is -19.2%.

As for `CN(C)[C@@H]1CCN(C(=O)c2ccsc2)[C@H]1Cc1cnn(C)c1`, the cytotoxicity at 70.5 h was -14.4%.

Regarding `COc1ncccc1CN1CCn2c(Cn3cncn3)cnc2C1`, the cytotoxicity at 70.5 h came to 20.3%.

Regarding `Cc1cc(C(=O)N2CCC(n3nc(C)cc3C)C2)c2ccc(F)cc2n1` (centres undefined), the cytotoxicity at 70.5 h is -9.21%.

Regarding `Cc1ccc(F)c(C(=O)N2C[C@@H](C(=O)O)[C@H](c3ccccc3)C2)c1Cl`, the cytotoxicity at 70.5 h was 1.54%.

In the case of `Fc1ccc2c(c1)C1(CCNCC1)CC2NC1CC1` (centres undefined), the cytotoxicity at 70.5 h came out at 14.1%.

For the compound `c1ccc(OC[C@@H]2CCC[C@@]23CNCCO3)nc1`, the cytotoxicity at 70.5 h is 10.8%.

For `c1cc(COC[C@@H]2CCC[C@@]23CNCCO3)ccn1`, the cytotoxicity at 70.5 h was determined as 8.32%.

Regarding `O=C(NCc1cncc2c1CCN(Cc1cccs1)C2)C1CC1`, the cytotoxicity at 70.5 h is -13.8%.

With `COc1ncccc1CN1C[C@H]2CCN(c3ncccn3)C[C@H]2C1`, the cytotoxicity at 70.5 h came out at 1.43%.

As for `Cc1cccc(N2CCOCC3(C2)CN(c2ccccc2)C(=O)CO3)n1` (centres undefined), the cytotoxicity at 70.5 h is -4.51%.

`c1coc(CN2CCO[C@H]3[C@H](OCC4CCCC4)CC[C@@H]32)c1`: the cytotoxicity at 70.5 h worked out at 11.8%.

Turning to `CN1CCC(c2nc3ccc(-c4cccc(F)c4)cn3n2)CC1`, the cytotoxicity at 70.5 h was -6.5%.

`O=C(NCc1cccnc1)c1nc2c(s1)CCCN2C(=O)C1CC1`: the cytotoxicity at 70.5 h was -3.72%.

Regarding `O=C1NCCN(CC2CC2)C12CCN(Cc1ccccc1)CC2`, the cytotoxicity at 70.5 h is 13.9%.

Take `COCC1CN(Cc2ccoc2)Cc2nn(C)cc21` (centres undefined): the cytotoxicity at 70.5 h is -2.22%.

`CCC1=N[C@@]2(CC[C@@H]3CN(Cc4ccc(Cl)cc4)C[C@@H]32)C(=O)N1`: the cytotoxicity at 70.5 h was -3.73%.

On to `COCC(=O)NCc1cc(=O)n2c(n1)CN(CC1CCOC1)CCC2` (centres undefined), for which the cytotoxicity at 70.5 h worked out at 15.2%.

For `CN(C)CCO[C@@H]1CC[C@H]2[C@H]1OCCN2C(=O)COc1ccccc1`, the cytotoxicity at 70.5 h is -16.3%.

For `O=C(Cc1ccccc1F)N1C[C@@H]2COC[C@]2(COc2cccnc2)C1`, the cytotoxicity at 70.5 h is -11.5%.

On to `CC1=N[C@@]2(CC[C@@H]3CNC[C@@H]32)C(=O)N1CC(C)C`, for which the cytotoxicity at 70.5 h was 31.4%.

As to `Cc1ccc(CN2CC[C@H]3OCC[C@@H](C(=O)NC4CC4)[C@@H]3C2)o1`, the cytotoxicity at 70.5 h was 18.8%.

In the case of `CNC(=O)C1Cn2ccnc2C2(CCN(Cc3cccc(C)n3)CC2)O1` (centres undefined), the cytotoxicity at 70.5 h worked out at 0.339%.

For `Cc1nnc(N2CC[C@H]3C[C@H](C(=O)N4CCOCC4)O[C@H]3C2)s1`, the cytotoxicity at 70.5 h is -2.02%.

As for `O=C(Cc1ccc(F)cc1)N1CCn2cc(Cn3cccn3)nc2C1`, the cytotoxicity at 70.5 h is -1.99%.

With `Cc1ccc(N2CC[C@H]3C[C@@H](C(=O)N4CCOCC4)O[C@H]3C2)nn1`, the cytotoxicity at 70.5 h was -0.412%.

`COCCN1CCC2(CC1)CN(C(=O)N(C)C)c1ccc(C)cc12`: the cytotoxicity at 70.5 h amounted to 3.45%.

On to `O=S(=O)(c1cccs1)N1CC[C@H](O)[C@@H]1Cc1ccncc1`, for which the cytotoxicity at 70.5 h was -1.15%.

On to `CN(C)C(=O)[C@@H]1C[C@@H]2CCN(Cc3nccs3)C[C@@H]2O1`, for which the cytotoxicity at 70.5 h was -6.01%.

`Cc1noc([C@H]2C[C@H]3OCC[C@H]3N(Cc3ccc4c(c3)OCO4)C2)n1`: the cytotoxicity at 70.5 h was -11.8%.

`CN1CC(=O)N(c2cccc(F)c2)CC12CCN(S(C)(=O)=O)C2` (centres undefined): the cytotoxicity at 70.5 h was -10.7%.

On to `Fc1ccc(CN2CC[C@H]3O[C@@H](COCC4CCOCC4)CC[C@H]32)cc1`, for which the cytotoxicity at 70.5 h came out at 18.1%.

`CN(C)CC(=O)N1CCC2(CC1)CN(c1ccsc1)C(=O)CO2`: the cytotoxicity at 70.5 h came to 21%.

Regarding `COCCN1C(=O)C[C@H]2[C@H]1CCN2Cc1ccc(OC)cc1`, the cytotoxicity at 70.5 h is -7.39%.

In the case of `Cn1cc(CN2CCC[C@]3(C[C@@H](Oc4ccccn4)CO3)C2)cn1`, the cytotoxicity at 70.5 h is -6.69%.

Turning to `CCC(=O)N1CC[C@H]2[C@H](C[C@@H](CN3CCCC3)N2c2nccs2)C1`, the cytotoxicity at 70.5 h is -3.2%.

Turning to `CC(=O)N1CC[C@H]2[C@H](C[C@@H](CN3CCCC3)N2c2nccs2)C1`, the cytotoxicity at 70.5 h was -7.72%.

In the case of `CS(=O)(=O)N1Cc2ccnn2CC(C(=O)NCc2cccnc2)C1` (centres undefined), the cytotoxicity at 70.5 h was determined as 20.5%.

In the case of `Cc1ccc(CC(=O)N2CC[C@@H]3CN(CCN(C)C)CCO[C@@H]3C2)cc1`, the cytotoxicity at 70.5 h was -8.7%.

For the compound `c1cc(CO[C@@H]2CC[C@H]3[C@H]2OCCN3CC2CCOCC2)ccn1`, the cytotoxicity at 70.5 h is 21.5%.

Consider `COc1ccc(CN2C[C@@H](OCc3ccccn3)[C@H]3COC[C@H]32)cc1`, for which the cytotoxicity at 70.5 h was -23.2%.

With `c1cc(CO[C@@H]2CC[C@H]3[C@H]2OCCN3Cc2ccoc2)ccn1`, the cytotoxicity at 70.5 h was -14.9%.

Turning to `c1cncc(N2CCCC3(CN(Cc4cccs4)CCO3)C2)c1` (centres undefined), the cytotoxicity at 70.5 h was 9.99%.

Regarding `O=C(NCc1ccccn1)[C@@H]1COC[C@H]2CN(C3CCOCC3)C[C@H]21`, the cytotoxicity at 70.5 h is 2.68%.

`O=C(NCc1ccccn1)[C@@H]1CCO[C@@H]2CCN(Cc3ccoc3)C[C@H]21`: the cytotoxicity at 70.5 h was -1.45%.

`O=C(c1ccco1)N1C[C@@H]2OCCN(CCN3CCCC3)[C@@H]2C1`: the cytotoxicity at 70.5 h was -11.2%.

For the compound `c1cncc(N2CCOCC3(CCCN(Cc4cccs4)C3)C2)c1` (centres undefined), the cytotoxicity at 70.5 h was 0.445%.

Consider `Cc1cc(CN2C[C@@H]3COC[C@]3(CN(C)C)C2)no1`, for which the cytotoxicity at 70.5 h was -6.11%.

For `Cc1ccc2c(c1)C1(CCNCC1)CN2C(=O)CN(C)C`, the cytotoxicity at 70.5 h is 4.93%.

For `CCN(C)c1ncnc2c1CCN(Cc1csc(C)n1)CC2`, the cytotoxicity at 70.5 h was -12.4%.

As for `N#Cc1cccc(CN2CC[C@@H]3[C@@H]2CC(=O)N3Cc2cccnc2)c1`, the cytotoxicity at 70.5 h is -18.9%.

In the case of `CN1CC[C@H]2[C@H](C[C@@H](CN3CCCC3)N2c2nccs2)C1`, the cytotoxicity at 70.5 h is -3.73%.

Turning to `COc1ccc(CN2CCn3cc(CN4CCN(C)CC4)nc3C2)cc1`, the cytotoxicity at 70.5 h is -7.16%.

Consider `c1ccc(CN2CC[C@@H]3O[C@H](COCc4ccncc4)CC[C@@H]32)nc1`, for which the cytotoxicity at 70.5 h was -13%.

With `c1ccc(CN2C[C@@H]3OCCN(c4ncccn4)[C@@H]3C2)nc1`, the cytotoxicity at 70.5 h was -12.9%.
